The values below come from patent US20030203963A1, “Antimicrobial agent” (priority 2001, published 2003).

The structures appear in SMILES notation. Where only a bound is given, the exact number is not on record here.

Experiment [1] deals with S cerevisiae var. paradoxus H103. Briefly: Bioscreen growth inhibition test. The experiment is classed as cell-based, Saccharomyces cerevisiae var. paradoxus. As to conditions: APP 213, BS010420, 72 h/25° C. The protocol: For broth cultures and Bioscreen testing most bacteria were grown in Brain Heart Infusion (BHI, Oxoid, pH 7.4). Lactobacillus sake A10 was grown in de Man, Rogosa, Sharpe medium ([…], Oxoid). Yeasts were grown in Sabouraud Liquid medium (SLM, Oxoid). Most bacteria were cultured at 30° C. Lactic acid bacteria were grown on solid medium in enriched CO2 atmosphere. Clostridium species were grown in Reinforced Clostridial Medium (RCM) at 37° C. anaerobically. Brochothrix thermosphacta fungi and yeasts were grown at 25° C. Fungi were cultured on Malt Extract Agar (MEA, Oxoid).
An automated Microbiology Reader Bioscreen C was used to measure growth curves of the strains in the presence and absence of APP. The Bioscreen C measures the development of turbidity (i.e. growth) kinetically by vertical photometry in 200 wells of a honeycomb microtitre plate, simultaneously. The system consists of a Bioscreen C analyser, which is an incubator and measurement unit, integrated with a PC, software (BioLink v 5.30), printer and a ‘Honeycomb 2’ cuvette multiwell plate. Growth curve data can be analysed within the BioLink software or exported to programs such as Excel.
Broth culture media were dispensed in 270 μl volumes into the wells as directed. […] (depending on the micro-organism under investigation) with readings taken every 20 minutes after the trays were shaken. […]

Another experiment concerns Lb. sake. Briefly: Test in milk. In kind it is cell-based, Lactobacillus sake. To be noted: for Control of growth: 2000 ppm, TMGB010605. How it is done: (§1) 8.9 ml samples of UHT milk containing 0.5% glucose and the indicator bromocresol purple (0.01%) were prepared and sterilised by autoclaving. The pH before APP addition was pH 6.65. Appropriate stock solutions of APP batch number APP20010215 (at 138 mg/ml) were prepared and filter sterilised. 1 ml of each was added to the milk to prepare tests containing 0, 1000 and 2000 ppm APP. Tests were then inoculated with 100 μl of diluted overnight broth cultures or spore suspensions to give a final inoculum level of ca. 10^3 cfu/ml. These and uninoculated tests were incubated at 20 and 8° C. and examined daily for visible changes compared to uninoculated control.

The next experiment deals with Br. thermosphacta. Briefly: Inoculated test in raw meat. The experiment is classed as cell-based, Brochothrix thermosphacta. To be noted: Raw inoculated meat at 8° C. pH 5.3. How it is done: Fresh beef steak was purchased from the local butcher, and minced on clean machinery. The raw meat (ca. pH 6.2) was divided into 8×90 samples and inoculated-with 10^3 cfu/ml of test organisms. The meat was mixed thoroughly using a stomacher. 10 g of SDW or 2% APP (Batch number APP20010215) was added, and the meat was again thoroughly mixed. An initial viable count was taken, the meat was incubated at 8° C., and sampled on the following days using non-selective agar (MPCA) and selective agar: XLD for Salmonella; Oxford selective agar (Listeria monocytogenes); and STAA agar (Brochothrix thermosphacta). The pH of the raw meat was pH 5.3.

The subject of another experiment is L. monocytogenes. As to the kind of experiment: Test in milk. As to conditions: 2000 ppm, TMGB010605. In kind it is cell-based, Listeria monocytogenes. How it is done:
as §1

The subject of the next experiment is S. cerevisiae 9763. Briefly: Chicken soup trial at 8° C. The experiment is classed as cell-based, Saccharomyces cerevisiae. As to conditions: for Effect on growth: chicken soup at 8° C., TCSM010521, APP215. An excerpt: (§2) A local supermarket brand of cream of chicken soup was used as a model food system. 600 g packs were purchased from the local supermarket. This was a ‘fresh home-made type’ of soup that was stored in the chill cabinet, with a short shelf life. It was chosen because it is a rich, nutritious food system containing a range of food components including meat, dairy and vegetable.
(§3) Ingredients were labelled as: chicken stock (water, duck fat, chicken, salt, flavourings, yeast extracts, pork gelatine, glucose syrup, vegetable concentrate, milk protein, sugar, malto-dextrin, vegetable oil, citric acid, lactose, chicken fat), ilk, chicken (9%), cream (8%), onion, potato, vegetable oil, modified maize starch, wheat flour, lemon juice, salt, white pepper. pH 5.912. Protein: 3.3%; carbohydrate: 4.7%; fat: 7.2%; fibre: 0.2%; sodium: 0.1%
(§4) For the test the soup was mixed 2:1 in water (to facilitate sampling and mixing) and sterilised by autoclaving at 121° C. for 15 minutes. For each experiment the pH of the soup was recorded; this was between pH 5.79-5.88.
(§5) For TCS010521/8 (incubated at 8° C.), samples were prepared in 27.8 g quantities. 1.5 g of an APP stock solution was added, and the tests inoculated with 0.3 ml of a suitably diluted cell or spore suspension to give a final inoculum of ca. 10^3 cfu/g. APP was tested at 0, 500 and 1000 ppm, and batch number APP20010213 (at 169 mg/ml) was used. The tests were sampled by viable count and then incubated at 8° C. and tested on a twice-weekly basis.

Another experiment relates to L. monocytogenes 272. Briefly: Test in cooked minced beef slurry. The experiment is classed as cell-based, Listeria monocytogenes. How it is done:
1 kg of minced beef, purchased from the local butcher, was mixed with 1 litre of BHI. 200 g portion of this meat slurry was autoclaved. When the meat had cooled, the pH was recorded (pH 6.24), and each pot was inoculated with 2.0 ml of 10^5 spores or cells and the meat re-mixed thoroughly. Each inoculated 200 g pot was distributed as 3×50 g portions. To each pot 1 ml of SDW, 5% or 10% APP (Batch No. APP20010215) was added, and the meat was again mixed thoroughly. An initial viable count was performed, the meat was incubated at 8° C. and sampled twice weekly. The pH of the cooked minced beef slurry was 6.24.

The next experiment concerns Ps. fluorescens 327. Briefly: Chicken soup trial at 8° C. In kind it is cell-based, Pseudomonas fluorescens. To be noted: chicken soup at 8° C., TCSM010521, APP215.
Excerpt: as §2, §3, §4, §5

As for `O=C1CC(CO)OC=C1O` (centres unmarked) [APP, Ascopyrone P], the “APP level causing significant inhibition” value in experiment [1] came out at 2000. The “APP level causing total inhibition” value in experiment [1] is given as greater than 4000. In addition, the Control of growth entry with Lb. sake (milk at 8° C.), in the experiment on Lb. sake (milk at 20° C.), in the experiment with L. monocytogenes (milk at 8° C.) and with L. monocytogenes (milk at 20° C.) was “No control observed” in each case. Further, the “No inhibition (effect on growth of target organism by 2000 ppm APP)” value is “Lb. sake” in the experiment with Lb. sake (Milk at 8° C. pH 6.65); “Lb. sake” with Lb. sake (Milk at 20° C. pH 6.65); “Br. thermosphacta” in the experiment with Br. thermosphacta; “(L. monocytogenes)” with L. monocytogenes 272 (Cooked minced beef slurry at 8° C. pH 6.24, organism printed in brackets). Moreover, the Effect on growth entry is “No effect with 500 and 1000 ppm” in the experiment on S. cerevisiae 9763 (500 ppm); “No effect with 500 and 1000 ppm” with S. cerevisiae 9763 (1000 ppm); “No significant inhibition by 2000 ppm” in the experiment with L. monocytogenes 272 (2000 ppm, minced beef slurry at 8° C., pH 6.24, TCM010619); “Little effect with 500 ppm” in the experiment on Ps. fluorescens 327 (500 ppm). In the experiment on S. cerevisiae 9763 (Chicken soup at 8° C. pH 5.8, (1000 ppm)), the “No inhibition (effect on growth of target organism by APP)” value is “S. cerevisiae (1000”. The Counts undetectable result in the experiment on Ps. fluorescens 327 (1000 ppm) is on record as “At 1000 ppm counts undetectable >7 d”. The “Total inhibition for” value in the experiment with Ps. fluorescens 327 (1000 ppm) is “Total inhibition by 1000 ppm for >27 days”.
